Experimental data reported in publication PMC11720353, “Clove Essential Oil as a Source of Antitumoral Compounds Capable of Crossing the Blood–Brain Barrier: A Focus on the Effects of β-Caryophyllene and Eugenol in a Glioblastoma Cell Line” (International Journal of Molecular Sciences, 2024).

Key:
[1] = test system: U87 cells; test: Cell death assay (Annexin V/PI, flow cytometry); format: cell-based, human; conditions: EU 200 µM, BCA 125 µM, alone or in combination, 24 h
Method: (§2) HMC3 and U87 cells were seeded in duplicate into 12-well plates (10 × 10^4 cells/well). After 24 h of incubation at 37 °C and 5% CO2, the medium was replaced, and the cells were treated either with EU (200 µM) or BCA (125 µM), alone and in combination (EU 200 µM + BCA 125 µM). Following the 24 h treatment, the cells were co-stained with AV-APC and PI according to the manufacturer’s protocol (Biolegend, San Diego, CA, USA). Briefly, the cells were resuspended in binding buffer (100 µL) and incubated with AV-APC solution (5 µL) and PI solution (2 µL) for 15 min at room temperature. Then, the cells were diluted in a binding buffer (400 µL). A six-parameter, four-color FACSCalibur flow cytometer (Becton Dickinson, San Jose, CA, USA) was used, and at least 10,000 events were collected by acquisition using CellQuest software (Becton Dickinson, San Jose, CA, USA). The results were analyzed with the Paint-a-Gate software and expressed in percentage (%).

[2] = test system: HMC3 cells; test: Cell death assay (Annexin V/PI, flow cytometry); format: cell-based, human; conditions: EU 200 µM, BCA 125 µM, alone or in combination, 24 h
Method: as §2

[3] = test system: HMC3 cells; test: Quantitative real-time PCR of mRNA levels; format: cell-based, human; conditions: 24 h
Method: (§1) An analysis of the genes involved in angiogenesis, tumor progression and proliferation were performed. In particular, we analyzed the genes involved in the cell cycle and in three different apoptotic pathways: B-cell lymphoma-2 (BCL2), Bcl-2-like protein 1 (BCL2L1), Bcl-2 Associated X-protein (BAX), BCL2 Antagonist/Killer 1 (BAK-1) and Caspase 9 (CASP9) as the key genes of the intrinsic mitochondrial pathway; and Phosphatase and tensin homolog (PTEN), Tumor protein p53 (TP53), Murine double minute 2 (MDM2), Cyclin-dependent kinase 4 (CDK4) and Vascular endothelial growth factor A (VEGFA) mRNA levels were assessed by quantitative real-time PCR (qRT-PCR). HMC3 and U87 cells were seeded with a density of 1 × 10^6 cells per well and incubated for 24 h at 37 °C and 5% CO2. Thereafter, the cells were treated either with EU (200 μM) or BCA (125 μM) alone and in combination (EU 200 μM + BCA 125 μM). Total RNA was extracted using the TripleXtractor solution (GRISP, Lisbon, Portugal) according to the manufacturer's protocol. RNA was converted into cDNA through the […] Synthesis Supermix (GRISP, Lisbon, Portugal). Each optimized reaction was performed using […] SYBR Green Mastermix 2X with […], Lisbon, Portugal) and subjected to the amplification protocol described by the manufacturer, using a melting temperature of 60 °C. The relative gene expression was determined by the 2^-ΔΔCt method and normalized on Glyceraldehyde-3-Phosphate Dehydrogenase (GAPDH), which was the endogenous reference and relative to the untreated cells (control condition).

[4] = test system: U87 cells; test: Quantitative real-time PCR of mRNA levels; format: cell-based, human; conditions: 24 h
Method: as §1

[5] = rat, in vivo, cited from earlier work
[6] = EU 200 µM, BCA 125 µM, alone or in combination

C=C1CC/C=C(\C)CC[C@@H]2[C@@H]1CC2(C)C [BCA, β-Caryophyllene]
live (viable) cells, change with respect to control [1]: did not affect
cell viability [2]: did not affect
PTEN mRNA expression, change vs control ([3]; EU 200 µM or BCA 125 µM): no effect
BAK1 mRNA expression, change vs control [3, 6]: +59.8%
BCL2 mRNA expression, change vs control [3, 6]: −56.2%
CDK4 mRNA levels, change vs control [3, 6]: no effects
MDM2 mRNA expression, change vs control [3, 6]: +34.2%
TP53 mRNA expression, change vs control [3, 6]: +155.5%
VEGFA mRNA expression, change vs control [3, 6]: −57%
PTEN mRNA expression, change vs control ([4]; EU 200 µM or BCA 125 µM): +171.8%
BAK1 mRNA expression, change vs control [4, 6]: +129.6%
BAX mRNA expression, change vs control [4, 6]: +35.0%
BCL2L1 mRNA expression, change vs control [4, 6]: −42.2%
BCL2 mRNA expression, change vs control [4, 6]: −54.8%
CASP9 mRNA expression, change vs control [4, 6]: +98.5%
MDM2 mRNA expression, change vs control [4, 6]: −49.3%
TP53 mRNA expression, change vs control [4, 6]: +506.4%
VEGFA mRNA expression, change vs control [4, 6]: −56.5%
CDK4 mRNA levels, change vs control ([4]; EU 200 µM, BCA 125 µM, alone or in combination, normalized to GAPDH): no effects
oral acute LD50 ([5]; po): over 5000 mg/kg
No Observed Adverse Effect Level (NOAEL) dose [5]: 700 mg/kg
